According to patent US20140343324A1, “SYNTHETIC MATRIX FOR CONTROLLED CELL INGROWTH AND TISSUE REGENERATION” (Eidgenossische Technische Hochschule Zürich, priority 2001, published 2014):

System: human foreskin fibroblasts (hFFs)
Experiment: Three-dimensional cell invasion from hFF-fibrin clusters into PEG-based hydrogels
Conditions: compared with collagen type I derived GCRDGPQGIAGQDRCG
Method: Near-confluent cultures of human foreskin fibroblasts (hFFs) were trypsinized, centrifuged and resuspended in 2% (m/v) fibrinogen from human plasma (Fluka, Switzerland) in sterile phosphate buffered solution (PBS) to a concentration of […]. To induce gelation of the hFF-fibrinogen suspension, thrombin (Sigma T-6884, Switzerland) and Ca^++ were added to final concentrations of 2 NIH units/mL and 2.5 mM, respectively, and rapidly mixed with the cell suspension. Prior to gelation, 2 μL droplets of this cell-fibrinogen precursor were gelled on microscope slides for ca. 15 min. at 37° C. The hFF-fibrin clusters were embedded inside 25 μl PEG-based hydrogels by placing three to four clusters into precursor solution prior to gelation. Such hFF-fibrin clusters embedded inside the PEG-based hydrogels were cultured serum-containing DMEM in the 12-well tissue culture plates for up to 30 days. Cell invasion from the cluster into the synthetic gel matrix was imaged and recorded with their center plane in focus. To quantify the penetration depth of the outgrowth, the area of the original hFF-fibrin cluster was measured in the center plane, as was the area of the hFF outgrowth, defined by the tips of the hFF branches in the center plane of focus. […]

GCRDGPQGIWGQDRCG (Ac-GCRDGPQGIWGQDRCG-NH2; cysteine pairing not given here) [synthetic MMP substrate capable of forming a hydrogel by Michael-type addition]
degradation of MMP substrate in hydrogel: degrades significantly faster
